Test results published in PMC11822212, “High-throughput screening identifies Aurora kinase B as a critical therapeutic target for Merkel cell carcinoma” (Nature Communications, 2025).
Values joined by “and” are separate entries in the source; they are usually repeats but may differ in a detail not shown here. Equal entries are not always repeated. Structures can show the parent of a compound that is named as a salt. Where two headings read alike, the source gives them in different places.

Key:
MCC13 cells (VN-MCC) = test: qHTS cell viability (CellTiter-Glo, 72 h; primary and follow-up small molecule screen); type: cell-based, human
MCC26 cells (VN-MCC) = test: as above; type: cell-based, human
UISO cells (VN-MCC) = test: as above; type: cell-based, human
WAGA cells (VP-MCC) = test: as above; type: cell-based, human
MKL-1 cells (VP-MCC) = test: as above; type: cell-based, human
MKL-2 cells (VP-MCC) = test: as above; type: cell-based, human
HACAT cells = test: qHTS cell viability (CellTiter-Glo, 72 h; primary screen), control cell line; type: cell-based, human
HEK293T cells = test: as above; type: cell-based, human
NIH-3T3 cells = test: as above; type: cell-based, mouse
CRL-7250 cells = test: as above; type: cell-based
[1] = tested on: MCC cell lines (WAGA, MKL-1, MKL-2, MCC13, MCC26, UISO); test: qHTS cell viability, all six MCC cell lines as a group (mean AUC, MCC.avg); type: cell-based, human
[2] = tested on: VP-MCC cell lines (WAGA, MKL-1, MKL-2); test: qHTS cell viability, VP-MCC cell lines as a group (mean AUC, VP.MCC.avg); type: cell-based, human
[3] = tested on: VN-MCC cell lines (MCC13, MCC26, UISO); test: qHTS cell viability, VN-MCC cell lines as a group (mean AUC, VN.MCC.avg); type: cell-based, human
[4] = tested on: control cell lines (HACAT, HEK293T, CRL-7250, NIH-3T3); test: qHTS cell viability, control cell lines as a group (mean AUC, Control.avg); type: cell-based
[5] = tested on: six MCC cell lines and four control cell lines; test: qHTS cell viability, all 10 cell lines screened; type: cell-based
[6] = NPC library, qHTS dose-response AUC, MCC13
[7] = NPC library; qHTS dose-response AUC, MCC26
[8] = NPC library, qHTS dose-response AUC, UISO
[9] = NPC library, qHTS dose-response AUC, WAGA
[10] = NPC library, qHTS dose-response AUC, MKL1
[11] = NPC library, qHTS dose-response AUC, MKL2
[12] = NPC library, qHTS dose-response AUC, HACAT control
[13] = NPC library; qHTS dose-response AUC, HEK293T control
[14] = NPC library, qHTS dose-response AUC, NIH3T3 control
[15] = NPC library, qHTS dose-response AUC, CRL7250 control
[16] = NPC library, mean AUC of six MCC cell lines
[17] = NPC library, mean AUC of VP-MCC cell lines
[18] = NPC library, therapeutic window: Control avg AUC minus VP-MCC avg AUC
[19] = NPC library, mean AUC of VN-MCC cell lines
[20] = NPC library, therapeutic window: Control avg AUC minus VN-MCC avg AUC
[21] = NPC library, mean AUC of control cell lines
[22] = NPC library, therapeutic window: Control avg AUC minus MCC avg AUC
[23] = MIPE library, 11-point DRC, sheet S2E
[24] = MIPE library, 11-point DRC, control cell line, sheet S2E

Work on `OCCN1CCN(CCCN2c3ccccc3Sc3ccc(C(F)(F)F)cc32)CC1` [Fluphenazine] yielded an MCC13_AUC (MCC13 cells (VN-MCC); [6]) of 444.309, an MCC26_AUC (MCC26 cells (VN-MCC); [7]) of 425.402 and a UISO_AUC (UISO cells (VN-MCC); [8]) of 423.342. The WAGA_AUC (WAGA cells (VP-MCC); [9]) was 435.377, the MKL1_AUC (MKL-1 cells (VP-MCC); [10]) was 435.034 and the MKL2_AUC (MKL-2 cells (VP-MCC); [11]) was 399.652. It also gave an HACAT_AUC (HACAT cells; [12]) of 491.426, an HEK293T_AUC (HEK293T cells; [13]) of 438.571 and an NIH3T3_AUC (NIH-3T3 cells; [14]) of 476.772. It also gave a CRL7250_AUC (CRL-7250 cells; [15]) of 486.675, an MCC_Avg_AUC [1, 16] of 427.186 and a VP-MCC_Avg_AUC [2, 17] of 423.354. For the same compound, the Control-VP-MCC [2, 18] was 50.0066, the VN-MCC_Avg_AUC [3, 19] was 431.018 and the Control-VN-MCC [3, 20] was 42.343. For the same compound, the Control_Avg_AUC [4, 21] was 473.361 and the Control-MCC [5, 22] was 46.1748.

For `COc1c(C)c2c(c(O)c1C/C=C(\C)CCC(=O)OCCN1CCOCC1)C(=O)OC2` [Mycophenolate mofetil], the MCC13_AUC (MCC13 cells (VN-MCC); [6]) was 354.203, the “Area under the dose-response curve (AUC) MCC13 Replicate 1” value (MCC13 cells (VN-MCC); follow-up screen, MCC13, replicate 1) was 377.4 and the “Area under the dose-response curve (AUC) MCC13 Replicate 2” value (MCC13 cells (VN-MCC); follow-up screen, MCC13, replicate 2) was 383.7. The “Area under the dose-response curve (AUC) MCC13 Replicate 3” value (MCC13 cells (VN-MCC); follow-up screen, MCC13, replicate 3) was 412.3, the MCC26_AUC (MCC26 cells (VN-MCC); NPC library, qHTS dose-response AUC, MCC26) was 393.051 and the “Area under the dose-response curve (AUC) MCC26 Replicate 1” value (MCC26 cells (VN-MCC); follow-up screen; MCC26; replicate 1) was 381.3. The “Area under the dose-response curve (AUC) MCC26 Replicate 2” value (MCC26 cells (VN-MCC); follow-up screen; MCC26; replicate 2) was 385.2, the “Area under the dose-response curve (AUC) MCC26 Replicate 3” value (MCC26 cells (VN-MCC); follow-up screen; MCC26; replicate 3) was 373.0 and the UISO_AUC (UISO cells (VN-MCC); [8]) was 380.141. For the same compound, the “Area under the dose-response curve (AUC) UISO Replicate 1” value (UISO cells (VN-MCC); follow-up screen, UISO, replicate 1) was 348.1, the “Area under the dose-response curve (AUC) UISO Replicate 2” value (UISO cells (VN-MCC); follow-up screen, UISO, replicate 2) was 378.4 and the “Area under the dose-response curve (AUC) UISO Replicate 3” value (UISO cells (VN-MCC); follow-up screen, UISO, replicate 3) was 389.6. The WAGA_AUC (WAGA cells (VP-MCC); [9]) was 157.003, the “Area under the dose-response curve (AUC) WAGA Replicate 1” value (WAGA cells (VP-MCC); follow-up screen, WAGA, replicate 1) was 322.6 and the “Area under the dose-response curve (AUC) WAGA Replicate 2” value (WAGA cells (VP-MCC); follow-up screen, WAGA, replicate 2) was 354.0. The “Area under the dose-response curve (AUC) WAGA Replicate 3” value (WAGA cells (VP-MCC); follow-up screen, WAGA, replicate 3) was 383.1, the MKL1_AUC (MKL-1 cells (VP-MCC); [10]) was 148.352 and the “Area under the dose-response curve (AUC) MKL-1 Replicate 1” value (MKL-1 cells (VP-MCC); follow-up screen, MKL-1, replicate 1) was 342.8. The “Area under the dose-response curve (AUC) MKL-1 Replicate 2” value (MKL-1 cells (VP-MCC); follow-up screen, MKL-1, replicate 2) was 365.2, the “Area under the dose-response curve (AUC) MKL-1 Replicate 3” value (MKL-1 cells (VP-MCC); follow-up screen, MKL-1, replicate 3) was 378.9 and the MKL2_AUC (MKL-2 cells (VP-MCC); [11]) was 105.914. For the same compound, the “Area under the dose-response curve (AUC) MKL-2 Replicate 1” value (MKL-2 cells (VP-MCC); follow-up screen, MKL-2, replicate 1) was 325.5, the “Area under the dose-response curve (AUC) MKL-2 Replicate 2” value (MKL-2 cells (VP-MCC); follow-up screen, MKL-2, replicate 2) was 324.8 and the “Area under the dose-response curve (AUC) MKL-2 Replicate 3” value (MKL-2 cells (VP-MCC); follow-up screen, MKL-2, replicate 3) was 367.3. It also gave an HACAT_AUC (HACAT cells; [12]) of 439.79, an HEK293T_AUC (HEK293T cells; NPC library, qHTS dose-response AUC, HEK293T control) of 332.795 and an NIH3T3_AUC (NIH-3T3 cells; [14]) of 433.09. For the same compound, the CRL7250_AUC (CRL-7250 cells; [15]) was 396.679, the MCC_Avg_AUC ([1]; NPC library, mean AUC of all 6 MCC cell lines) was 256.444 and the MCC_Avg_AUC [1, 16] was 256.444. The Control-VP-MCC ([2]; Control AUC minus VP-MCC AUC) was 263.498, the VP-MCC_Avg_AUC [2, 17] was 137.09 and the Control-VP-MCC [2, 18] was 263.498. The Control-VN-MCC ([3]; Control AUC minus VN-MCC AUC) was 24.7903, the VN-MCC_Avg_AUC [3, 19] was 375.798 and the Control-VN-MCC [3, 20] was 24.7903. For the same compound, the Control_Avg_AUC [4, 21] was 400.588 and the Control-MCC [5, 22] was 144.144.

In the case of `O=C(CCCCCCC(=O)Nc1ccccc1)NO` [Suberoylanilide hydroxamic acid], the MCC13_AUC (MCC13 cells (VN-MCC); [23]) is reported as 429.995, the MCC26_AUC (MCC26 cells (VN-MCC); [23]) is reported as 457.523 and the UISO_AUC (UISO cells (VN-MCC); [23]) is reported as 422.155. The WAGA_AUC (WAGA cells (VP-MCC); [23]) was 347.247, the MKL1_AUC (MKL-1 cells (VP-MCC); [23]) was 374.242 and the MKL2_AUC (MKL-2 cells (VP-MCC); [23]) was 344.522. For the same compound, the HACAT_AUC (HACAT cells; [24]) was 451.394, the HEK293T_AUC (HEK293T cells; [24]) was 400.579 and the NIH3T3_AUC (NIH-3T3 cells; [24]) was 416.277. The CRL7250_AUC (CRL-7250 cells; [24]) was 429.882, the MCC_Avg_AUC ([1]; MIPE library, mean AUC of six MCC cell lines, sheet S2E) was 395.947 and the Control-VP-MCC ([2]; MIPE library, Control AUC minus VP-MCC AUC (therapeutic window), sheet S2E) was 69.1958. The VP-MCC_Avg_AUC ([2]; MIPE library, mean AUC of VP-MCC cell lines, sheet S2E) was 355.337, the Control-VN-MCC ([3]; MIPE library, Control AUC minus VN-MCC AUC (therapeutic window), sheet S2E) was -12.0249 and the VN-MCC_Avg_AUC ([3]; MIPE library, mean AUC of VN-MCC cell lines, sheet S2E) was 436.558. It also gave a Control_Avg_AUC ([4]; MIPE library, mean AUC of control cell lines, sheet S2E) of 424.533 and a Control-MCC ([5]; MIPE library, Control AUC minus MCC AUC (therapeutic window), sheet S2E) of 28.5854.

Work on `CCCC(C(=O)OCCN(CC)CC)(c1ccccc1)c1ccccc1` [Proadifen hydrochloride] yielded an MCC13_AUC (MCC13 cells (VN-MCC); [6]) of 446.167, an MCC26_AUC (MCC26 cells (VN-MCC); [7]) of 413.531 and a UISO_AUC (UISO cells (VN-MCC); [8]) of 416.723. For the same compound, the WAGA_AUC (WAGA cells (VP-MCC); [9]) was 421.101, the MKL1_AUC (MKL-1 cells (VP-MCC); [10]) was 383.197 and the MKL2_AUC (MKL-2 cells (VP-MCC); [11]) was 398.333. The HACAT_AUC (HACAT cells; [12]) was 477.751, the HEK293T_AUC (HEK293T cells; [13]) was 426.534 and the NIH3T3_AUC (NIH-3T3 cells; [14]) was 451.129. For the same compound, the CRL7250_AUC (CRL-7250 cells; [15]) was 484.159, the MCC_Avg_AUC [1, 16] was 413.175 and the VP-MCC_Avg_AUC [2, 17] was 400.877. It also gave a Control-VP-MCC [2, 18] of 59.0165, a VN-MCC_Avg_AUC [3, 19] of 425.473 and a Control-VN-MCC [3, 20] of 34.42. It also gave a Control_Avg_AUC [4, 21] of 459.893 and a Control-MCC [5, 22] of 46.7182.

Compound `CC(Cc1ccccc1)NCCn1cnc2c1c(=O)n(C)c(=O)n2C` (stereo not shown) [Fenethylline hydrochloride] has an MCC13_AUC (MCC13 cells (VN-MCC)) of 447.432, an MCC26_AUC (MCC26 cells (VN-MCC)) of 413.898 and a UISO_AUC (UISO cells (VN-MCC)) of 437.462. For the same compound, the WAGA_AUC (WAGA cells (VP-MCC)) was 435.275, the MKL1_AUC (MKL-1 cells (VP-MCC)) was 406.458 and the MKL2_AUC (MKL-2 cells (VP-MCC)) was 435.518. For the same compound, the HACAT_AUC (HACAT cells) was 497.83, the HEK293T_AUC (HEK293T cells) was 471.885 and the NIH3T3_AUC (NIH-3T3 cells) was 480.657. For the same compound, the CRL7250_AUC (CRL-7250 cells) was 496.56, the MCC_Avg_AUC [1] was 429.34 and the Control-VP-MCC [2] was 60.9825. For the same compound, the VP-MCC_Avg_AUC [2] was 425.75, the Control-VN-MCC [3] was 53.8023 and the VN-MCC_Avg_AUC [3] was 432.93 and 432.931. It also gave a Control_Avg_AUC [4] of 486.733 and a Control-MCC [5] of 57.3924.
